Test results from patent US11267794B2, “Benzothia(di)azepine compounds and their use as bile acid modulators” (Albireo AB, priority 2019, dated 2022).
Where two headings read alike, the source gives them in different places.

Columns and labels:
Caco-2 cells [1] = tested on: Caco-2 cells
Method: (§3) Caco-2 cells (Evotec) were seeded at a density of 70,000 cells/well in Millicell® 24-well cell culture insert plates and maintained in an incubator (37° C., 5% CO2, 95% RH) for 21 days with media change on alternate days.
(§4) Stock solutions (10 mM) of the test compounds, atenolol (low permeability marker), propranolol (high permeability marker) and digoxin (substrate for P-gp transport pathway) were prepared in dimethylsulfoxide (DMSO). An intermediate stock solution (1 mM) was prepared by diluting 10 μL of 10 mM master stock solution with 90 μL of neat DMSO. A working stock solution (10 μM) was prepared by diluting 50 μL of 1 mM with 4950 μL of FaSSIF buffer. Post addition of compounds to the FaSSIF, samples were subjected to sonication for 2 hours, and centrifuged at 4000 RPM for 30 minutes at 37° C. The 4 mL of resultant supernatant was directly used in the assay. The final DMSO concentration in the transport experiments was 1%.
(§5) On the day of assay, Caco-2 monolayers were washed twice with transport buffer (HBSS, pH 7.4) and pre-incubated for 30 min (37° C., 5% CO2, 95% RH) in an incubator. The electrical resistance of the monolayers was measured with a Millicell®—ERS system. Monolayers with trans-epithelial electrical resistance (TEER) values greater than 350 ohm·cm^2 were selected for the assay.
(§6) The assay was conducted in absorptive direction (A2B) and secretory (B2A) directions. Transport experiments were initiated by addition of transport assay buffer (FaSSIF buffer prepared in HBSS) consisting of compounds to the donor compartment (apical chamber A-B; basolateral chamber B-A) in duplicate (n=2) wells. Drug free HBSS buffer (pH 7.4) containing 1% bovine serum albumin (BSA) was introduced to the receiver (A-B-basolateral; B-A-Apical) compartments. The volumes of apical and basolateral compartments were 0.4 and 0.8 mL, respectively. After adding dosing solution, plates were incubated in an incubator for 120 minutes at 37° C. After 120 minutes, donor and receiver samples were collected and matrix matched (1:1, 30 μL study sample+30 μL blank buffer) with the opposite buffer. Dosing samples matrix matched (1:1, 30 μL study sample+30 μL blank buffer) with the opposite buffer. Samples were processed by adding acetonitrile containing internal standard (60 μL study sample+200 μL acetonitrile containing internal standard—Tolbutamide, 500 ng/mL). Samples were vortexed and centrifuged at 4000 rpm for 10 minutes. The obtained supernatant (100 μL) was diluted with 100 μL of water and transferred to fresh 96 well plates. The concentration of compounds in the samples was analyzed by liquid chromatography tandem mass spectrometry (LC-MS/MS) method using discovery grade bio-analytical method, as applicable.
(§7) The mean apparent permeability (Papp, ×10^−6 cm/sec) of the test compounds, atenolol, propranolol and digoxin were calculated as follows:

hIBAT = biological target: T1, hIBAT (Homo sapiens, UniProt Q12908); assay: IBAT (h/m) assay, 3H-taurocholic acid uptake in human IBAT-overexpressing cells; format: cell-based; conditions: 0.25 μM 3H-taurocholic acid and 5 μM cold taurocholic acid, 20 minutes
T1 construct: expressed in transfected cells; kept under Puromycin selection
T1 sequence (Q12908 1-348): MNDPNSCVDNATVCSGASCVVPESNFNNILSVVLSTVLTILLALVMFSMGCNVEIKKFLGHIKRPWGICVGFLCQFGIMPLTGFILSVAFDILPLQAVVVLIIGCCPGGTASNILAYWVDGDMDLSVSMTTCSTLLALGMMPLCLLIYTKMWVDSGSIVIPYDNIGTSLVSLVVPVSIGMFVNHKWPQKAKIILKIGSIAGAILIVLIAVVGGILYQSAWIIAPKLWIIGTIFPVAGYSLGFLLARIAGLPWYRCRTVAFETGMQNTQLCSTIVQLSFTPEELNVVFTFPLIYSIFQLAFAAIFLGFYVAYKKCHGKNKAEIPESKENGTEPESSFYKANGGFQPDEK
Method: 10,000 cells (Human or Mouse IBAT-overexpressing cells) were seeded in 96-wells plate (Corning CLS3809) in 200 μL MEM-alpha medium (Gibco 12571-063) supplemented with 10% FBS (Gibco 10438026) containing Puromycin (Gibco A1113803) (10 μg/mL) and incubated at 37° C. in 5% CO2 for 48 hours. After incubation, media was decanted from the wells and cells were washed two times with 300 μL of basal MEM-alpha medium (FBS-free). After decanting basal MEM-alpha medium each time, plates were tapped against paper towel to ensure maximum removal of residual media. Test inhibitor dilutions (highest test concentration being 10 μM, 3-fold serial dilution, 10 points) prepared in DMSO (Sigma D2650) were added in incubation mix (maintaining 0.2% final DMSO concentration) containing 0.25 μM 3H-taurocholic acid (ARC ART-1368) and 5 μM of cold taurocholic acid (Sigma T4009). 50 μL of incubation mix containing test inhibitors was then added to the wells (in duplicate) and the plates were incubated for 20 minutes in a CO2 incubator at 37° C. After incubation, the reaction was stopped by keeping the plates on ice water mix for 2-3 minutes and then the incubation mix was aspirated completely from the wells. The wells were washed two times with 250 μL of chilled unlabelled 1 mM taurocholic acid dissolved in HEPES (Gibco 15630080)-buffered (10 mM) HBSS (Gibco 14175079) (pH 7.4). The plates were tapped against a paper towel after every wash to ensure maximum removal of blocking buffer.
(§1) 100 μL of MicroScint-20 (PerkinElmer 6013621) was added to the wells and kept overnight at room temperature before reading the plates in TopCount NXT™ Microplate Scintillation and Luminescence Counter from PerkinElmer under 3H Test protocol (set at 120 seconds reading time per well).
(§2) All test compounds were provided in powder form at room temperature. 10 mM DMSO stocks of the test compounds were prepared, aliquoted and stored at −20° C. From the 10 mM DMSO stock of the compounds, a 3-fold serial dilution in DMSO was prepared to get a total of 10 dilutions of the test compounds. 0.5 μL of this dilution in DMSO was added to 250 μL of FBS-free basal media containing 3H-taurocholic acid and cold taurocholic acid to prepare the incubation mixture.

hLBAT = biological target: T2, hLBAT (Homo sapiens, UniProt Q14973); assay: LBAT (h/m) assay, 3H-taurocholic acid uptake in human LBAT-overexpressing cells; format: cell-based; conditions: 0.3 μM 3H-taurocholic acid and 7.5 μM cold taurocholic acid, 20 minutes
T2 construct: expressed in transfected cells; kept under Geneticin selection
T2 sequence (Q14973 1-349): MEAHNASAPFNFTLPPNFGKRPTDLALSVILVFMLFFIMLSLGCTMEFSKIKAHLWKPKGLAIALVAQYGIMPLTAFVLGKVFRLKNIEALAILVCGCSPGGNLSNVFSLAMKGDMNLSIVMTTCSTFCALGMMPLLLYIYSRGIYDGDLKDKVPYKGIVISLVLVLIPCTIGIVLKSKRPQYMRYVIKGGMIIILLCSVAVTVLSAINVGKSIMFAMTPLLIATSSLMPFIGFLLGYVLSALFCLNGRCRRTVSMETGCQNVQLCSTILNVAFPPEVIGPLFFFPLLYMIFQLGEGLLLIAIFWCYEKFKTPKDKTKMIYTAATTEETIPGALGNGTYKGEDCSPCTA
Method: 20,000 cells (Human or Mouse LBAT-overexpressing cells) were seeded in 96-wells plate (Corning CLS3809) in 100 μL MEM-alpha medium (Gibco 12571-063) supplemented with 10% FBS (Gibco 10438026) containing Geneticin (Gibco 10131-027) (1 mg/mL) and incubated at 37° C. in 5% CO2 for 24 hours. After incubation, media was decanted from the wells and cells were washed two times with 300 μL of basal MEM-alpha medium (FBS-free). After decanting basal MEM-alpha medium each time, plates were tapped against paper towel to ensure maximum removal of residual media. For human LBAT, incubation mix was prepared by adding test inhibitor dilutions (3-fold serial dilution in DMSO (Sigma D2650), 10 points) in MEM-alpha (without FBS) containing 0.3 μM 3H-taurocholic acid (ARC ART-1368) and 7.5 μM cold taurocholic acid (Sigma T4009) (maintaining 0.2% final DMSO concentration). For mouse LBAT, incubation mix was prepared by adding test inhibitor dilutions (3-fold serial dilution in DMSO, 10 points) in MEM-alpha (without FBS) containing 0.3 μM 3H-taurocholic acid and 25 μM cold taurocholic acid maintaining 0.2% final DMSO concentration). 50 μL of incubation mix containing test inhibitors was then added to the wells (in duplicate) and the plates were incubated for 20 minutes in a CO2 incubator at 37° C. After incubation, the reaction was stopped by keeping the plates on ice water mix for 2-3 minutes and then the incubation mix was aspirated completely from the wells. The wells were washed two times with 250 μL of chilled unlabelled 1 mM taurocholic acid dissolved in HEPES (Gibco 15630080)-buffered (10 mM) HBSS (Gibco 14175079) (pH 7.4). The plates were tapped against a paper towel after every wash to ensure maximum removal of blocking buffer.
as §1, with “well, with normal plate orientation).” for “well).”
as §2

[2] = set-up: species or system mice (CD1); conditions: mouse, in vivo
Method: Male mice (C57BL/6 or CD1) or Wistar rats of 8-9 weeks old were used. For each test compound, two groups of 3 animals each were used. One group was administered a single intravenous dose of 1 mg/kg (vehicle 100% DMSO) through the tail vein and the other group was administered a single oral dose of 10 mg/kg through gavage needle. The group that was administered an oral dose was fasted overnight. Blood samples were collected after 0.083, 0.25, 0.5, 1, 2, 4, 6, 8 and 24 hours following intravenous administration, and after 0.25, 0.5, 1, 2, 4, 6, 8 and 24 hours following oral administration. Blood samples were taken from saphenous vein. 0.2% EDTA was used as the anticoagulant. The samples were analyzed by a discovery grade bioanalytical method developed for the estimation of test compound in plasma, using an LC-MS/MS system.

Caco-2 cells [3] = assay: Bidirectional permeability assay (Caco-2 cells); conditions: FaSSIF buffer, 120 minutes at 37° C.; for Permeability (Caco-2) Papp A2B: absorptive direction (A2B); for Permeability (Caco-2) Papp B2A: secretory direction (B2A)
Method: as §3, §4, §5, §6, §7

[4] = Bidirectional permeability assay (Caco-2 cells); conditions: human, Caco-2
Method: as §3, §4, §5, §6, §7

Compound | Permeability (Caco-2) Papp A2B (Caco-2 cells [1]) [×10⁻⁶ cm/s] | Permeability (Caco-2) Papp B2A (Caco-2 cells [1]) [×10⁻⁶ cm/s] | IC50 (hIBAT) [µM] | IC50 (hLBAT) [µM] | Bioavailability (%) [2] | Permeability (Caco-2) Papp A2B (Caco-2 cells [3]) [×10⁻⁶ cm/s] | Permeability (Caco-2) Papp B2A (Caco-2 cells [3]) [×10⁻⁶ cm/s] | Papp A→B at 120 min, 10 µM [4] [×10⁻⁶ cm/s] | Papp B→A at 120 min, 10 µM [4] [×10⁻⁶ cm/s]
CCCCC1(CCCC)CN(c2ccc(F)cc2)c2cc(SC)c(O/C=C(\F)C(=O)O)cc2S(=O)(=O)C1 [Example 1, (Z)-3-((3,3-dibutyl-5-(4-fluorophenyl)-7-(methylthio)-1,1-dioxido-2,3,4,5-tetrahydro-1,5-benzothiazepin-8-yl)oxy)-2-fluoroacrylic acid] | – | – | 0.021 | 0.049 | – | – | – | 0.9 | 0.9
CCCCC1(CC)CN(c2ccccc2)c2cc(N(C)C)c(O/C=C/C(=O)O)cc2S(=O)(=O)N1 (stereo not shown) [Example 13, (E)-3-((3-butyl-7-(dimethylamino)-3-ethyl-1,1-dioxido-5-phenyl-2,3,4,5-tetrahydro-1,2,5-benzothiadiazepin-8-yl)oxy)acrylic acid] | – | – | 0.013 | 1.86 | – | – | – | 22 | 18
CCCC[C@@]1(CC)CN(c2ccccc2)c2cc(N(C)C)c(O/C=C/C(=O)O)cc2S(=O)(=O)N1.CCCC[C@]1(CC)CN(c2ccccc2)c2cc(N(C)C)c(O/C=C/C(=O)O)cc2S(=O)(=O)N1 (mixture of isomers) [Example 14, (S)-(E)-3-((3-butyl-7-(dimethylamino)-3-ethyl-1,1-dioxido-5-phenyl-2,3,4,5-tetrahydro-1,2,5-benzothiadiazepin-8-yl)oxy)acrylic acid and (R)-(E)-3-((3-butyl-7-(dimethylamino)-3-ethyl-1,1-dioxido-5-phenyl-2,3,4,5-tetrahydro-1,2,5-benzothiadiazepin-8-yl)oxy)acrylic acid] | – | – | 0.006 | – | – | 11 | 20 | – | –

Results, then the compound that gave them:

Permeability (Caco-2) Papp A2B (Caco-2 cells [1]) [×10⁻⁶ cm/s] | Permeability (Caco-2) Papp B2A (Caco-2 cells [1]) [×10⁻⁶ cm/s] | IC50 (hIBAT) [µM] | IC50 (hLBAT) [µM] | Bioavailability (%) [2] | Permeability (Caco-2) Papp A2B (Caco-2 cells [3]) [×10⁻⁶ cm/s] | Permeability (Caco-2) Papp B2A (Caco-2 cells [3]) [×10⁻⁶ cm/s] | Papp A→B at 120 min, 10 µM [4] [×10⁻⁶ cm/s] | Papp B→A at 120 min, 10 µM [4] [×10⁻⁶ cm/s] | Compound
10 | 5.4 | 0.004 | 0.113 | 41 (CD1) % | – | – | – | – | (S)-(E)-3-((3-butyl-3-ethyl-5-(4-fluorophenyl)-7-(methylthio)-1,1-dioxido-2,3,4,5-tetrahydro-1,5-benzothiazepin-8-yl)oxy)acrylic acid and (R)-(E)-3-((3-butyl-3-ethyl-5-(4-fluorophenyl)-7-(methylthio)-1,1-dioxido-2,3,4,5 tetrahydro-1,5-benzothiazepin-8-yl)oxy)acrylic acid [Example 10]
– | – | 0.008 | 0.427 | – | 1.8 | 2.2 | – | – | (S)—(Z)-3-((3-butyl-7-(dimethylamino)-3-ethyl-1,1-dioxido-5-phenyl-2,3,4,5-tetrahydro-1,2,5-benzothiadiazepin-8-yl)oxy)-2-fluoroacrylic acid and (R)—(Z)-3-((3-butyl-7-(dimethylamino)-3-ethyl-1,1-dioxido-5-phenyl-2,3,4,5-tetrahydro-1,2,5-benzothiadiazepin-8-yl)oxy)-2-fluoroacrylic acid [Example 3]
– | – | 0.005 | 0.014 | – | 5.7 | 4.1 | – | – | (S)—(Z)-3-((3-butyl-3-ethyl-5-(4-fluorophenyl)-7-(methylthio)-1,1-dioxido-2,3,4,5-tetrahydro-1,5-benzothiazepin-8-yl)oxy)-2-fluoroacrylic acid and (R)—(Z)-3-((3-butyl-3-ethyl-5-(4-fluorophenyl)-7-(methylthio)-1,1-dioxido-2,3,4,5-tetrahydro-1,5-benzothiazepin-8-yl)oxy)-2-fluoroacrylic acid [Example 7]
– | – | 0.005 | 0.014 | – | – | – | 2.3 | 2 | CCCCC1(CC)CN(c2ccc(F)cc2)c2cc(SC)c(O/C=C(\F)C(=O)O)cc2S(=O)(=O)C1 (stereo not shown) [Example 5, (Z)-3-((3-butyl-3-ethyl-5-(4-fluorophenyl)-7-(methylthio)-1,1-dioxido-2,3,4,5-tetrahydro-1,5-benzothiazepin-8-yl)oxy)-2-fluoroacrylic acid]
